Assays:
Assay in all cases: normalised viability (% of control), CellTiter-Blue; higher = more viable cells (about 100 = DMSO control)
Conditions in all cases: incubation time: 72 h
CAL-148 [1] = tested on: CAL-148
How it was run: (§1)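 Each value is normalised viability at a single listed concentration of the series. Breast cancer cell lines in 384-well plates were incubated 72 h with compound and read by CellTiter-Blue fluorescence at 560/590 nm, with vehicle set to 100 and a positive kill control to 0 on every plate.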

CAL-51 [2] = tested on: CAL-51
How it was run: as §1

SK-BR-3 [3] = tested on: SK-BR-3
How it was run: as §1

CAL-85-1 [4] = tested on: CAL-85-1
How it was run: as §1

MDA-MB-436 = tested on: MDA-MB-436
How it was run: as §1

CAL-120 = tested on: CAL-120
How it was run: as §1

BT-549 = tested on: BT-549
How it was run: as §1

MDA-MB-453 [5] = tested on: MDA-MB-453
How it was run: as §1

HDQ-P1 = tested on: HDQ-P1
How it was run: as §1

MFM-223 [6] = tested on: MFM-223
How it was run: as §1

HCC1599 [7] = tested on: HCC1599
How it was run: as §1

MDA-MB-468 [8] = tested on: MDA-MB-468
How it was run: as §1

MDA-MB-231 [9] = tested on: MDA-MB-231
How it was run: as §1

Hs578T [10] = tested on: Hs578T
How it was run: as §1

BT-474 [11] = tested on: BT-474
How it was run: as §1

HCC1937 = tested on: HCC1937
How it was run: as §1

DU-4475 [12] = tested on: DU-4475
How it was run: as §1

CAL-148 [13] = tested on: CAL-148; remark: listed apart in the source
How it was run: as §1

CAL-51 [14] = tested on: CAL-51; remark: listed apart in the source
How it was run: as §1

SK-BR-3 [15] = tested on: SK-BR-3; remark: listed apart in the source
How it was run: as §1

CAL-85-1 [16] = tested on: CAL-85-1; remark: listed apart in the source
How it was run: as §1

MDA-MB-453 [17] = tested on: MDA-MB-453; remark: listed apart in the source
How it was run: as §1

MFM-223 [18] = tested on: MFM-223; remark: listed apart in the source
How it was run: as §1

HCC1599 [19] = tested on: HCC1599; remark: listed apart in the source
How it was run: as §1

MDA-MB-468 [20] = tested on: MDA-MB-468; remark: listed apart in the source
How it was run: as §1

MDA-MB-231 [21] = tested on: MDA-MB-231; remark: listed apart in the source
How it was run: as §1

Hs578T [22] = tested on: Hs578T; remark: listed apart in the source
How it was run: as §1

BT-474 [23] = tested on: BT-474; remark: listed apart in the source
How it was run: as §1

DU-4475 [24] = tested on: DU-4475; remark: listed apart in the source
How it was run: as §1

COc1cc2nccc(Oc3ccc(NC(=O)C4(C(=O)Nc5ccc(F)cc5)CC4)cc3)c2cc1OC [Cabozantinib]
normalised viability (CAL-148 [1]; 1 nM): 98.6%
normalised viability (CAL-51 [2]; 1 nM): 96.9%
normalised viability (SK-BR-3 [3]; 10 nM): 76.2%
normalised viability (CAL-85-1 [4]; 1 nM): 91.8%
normalised viability (MDA-MB-436; 10 nM): 108%
normalised viability (CAL-120; 10 nM): 80.7%
normalised viability (BT-549; 10 nM): 104%
normalised viability (MDA-MB-453 [5]; 1 nM): 98.5%
normalised viability (HDQ-P1; 1 nM): 99.5%
normalised viability (MFM-223 [6]; 10 nM): 93.5%
normalised viability (HCC1599 [7]; 10 nM): 82.3%
normalised viability (MDA-MB-468 [8]; 10 nM): 123%
normalised viability (MDA-MB-231 [9]; 10 nM): 100%
normalised viability (Hs578T [10]; 10 nM): 91.1%
normalised viability (BT-474 [11]; 10 nM): 122%
normalised viability (HCC1937; 10 nM): 95.4%
normalised viability (DU-4475 [12]; 1 nM): 89.4%
normalised viability (CAL-148 [13]; 0.3 nM): 94.5%
normalised viability (CAL-148 [13]; 3 nM): 103%
normalised viability (CAL-148 [13]; 10 nM): 94.2%
normalised viability (CAL-51 [14]; 0.3 nM): 109%
normalised viability (CAL-51 [14]; 3 nM): 106%
normalised viability (CAL-51 [14]; 10 nM): 97.8%
normalised viability (SK-BR-3 [15]; 1 nM): 115%
normalised viability (SK-BR-3 [15]; 100 nM): 110%
normalised viability (SK-BR-3 [15]; 1000 nM): 109%
normalised viability (CAL-85-1 [16]; 0.3 nM): 89.2%
normalised viability (CAL-85-1 [16]; 3 nM): 87.5%
normalised viability (CAL-85-1 [16]; 10 nM): 88.9%
normalised viability (MDA-MB-453 [17]; 0.3 nM): 111%
normalised viability (MDA-MB-453 [17]; 3 nM): 96.9%
normalised viability (MDA-MB-453 [17]; 10 nM): 108%
normalised viability (MFM-223 [18]; 1 nM): 88.5%
normalised viability (MFM-223 [18]; 100 nM): 84%
normalised viability (MFM-223 [18]; 1000 nM): 53.7%
normalised viability (HCC1599 [19]; 1 nM): 91.8%
normalised viability (HCC1599 [19]; 100 nM): 88.6%
normalised viability (HCC1599 [19]; 1000 nM): 74.6%
normalised viability (MDA-MB-468 [20]; 1 nM): 110%
normalised viability (MDA-MB-468 [20]; 100 nM): 106%
normalised viability (MDA-MB-468 [20]; 1000 nM): 101%
normalised viability (MDA-MB-231 [21]; 1 nM): 86.4%
normalised viability (MDA-MB-231 [21]; 100 nM): 94.1%
normalised viability (MDA-MB-231 [21]; 1000 nM): 87.7%
normalised viability (Hs578T [22]; 1 nM): 128%
normalised viability (Hs578T [22]; 100 nM): 102%
normalised viability (Hs578T [22]; 1000 nM): 111%
normalised viability (BT-474 [23]; 1 nM): 125%
normalised viability (BT-474 [23]; 100 nM): 119%
normalised viability (BT-474 [23]; 1000 nM): 127%
normalised viability (DU-4475 [24]; 0.3 nM): 90.4%
normalised viability (DU-4475 [24]; 3 nM): 78%
normalised viability (DU-4475 [24]; 10 nM): 88.4%

N.N.[Cl][Pt][Cl] [Cisplatin]
normalised viability (CAL-148 [1]; 10 nM): 94.8%
normalised viability (CAL-51 [2]; 10 nM): 108%
normalised viability (SK-BR-3 [3]; 100 nM): 90.5%
normalised viability (CAL-85-1 [4]; 10 nM): 104%
normalised viability (MDA-MB-436; 100 nM): 89.8%
normalised viability (CAL-120; 100 nM): 86.5%
normalised viability (BT-549; 100 nM): 105%
normalised viability (MDA-MB-453 [5]; 10 nM): 111%
normalised viability (HDQ-P1; 10 nM): 130%
normalised viability (MFM-223 [6]; 100 nM): 93.7%
normalised viability (HCC1599 [7]; 100 nM): 95.4%
normalised viability (MDA-MB-468 [8]; 100 nM): 99.1%
normalised viability (MDA-MB-231 [9]; 100 nM): 96.4%
normalised viability (Hs578T [10]; 100 nM): 106%
normalised viability (BT-474 [11]; 100 nM): 127%
normalised viability (HCC1937; 100 nM): 95.1%
normalised viability (DU-4475 [12]; 10 nM): 103%
normalised viability (CAL-148 [13]; 3 nM): 92.1%
normalised viability (CAL-148 [13]; 30 nM): 102%
normalised viability (CAL-148 [13]; 100 nM): 103%
normalised viability (CAL-51 [14]; 3 nM): 107%
normalised viability (CAL-51 [14]; 30 nM): 97.9%
normalised viability (CAL-51 [14]; 100 nM): 109%
normalised viability (SK-BR-3 [15]; 10 nM): 99.1%
normalised viability (SK-BR-3 [15]; 1000 nM): 105%
normalised viability (SK-BR-3 [15]; 10000 nM): 111%
normalised viability (CAL-85-1 [16]; 3 nM): 96.2%
normalised viability (CAL-85-1 [16]; 30 nM): 87.7%
normalised viability (CAL-85-1 [16]; 100 nM): 95.7%
normalised viability (MDA-MB-453 [17]; 3 nM): 124%
normalised viability (MDA-MB-453 [17]; 30 nM): 117%
normalised viability (MDA-MB-453 [17]; 100 nM): 110%
normalised viability (MFM-223 [18]; 10 nM): 88.5%
normalised viability (MFM-223 [18]; 1000 nM): 91%
normalised viability (MFM-223 [18]; 10000 nM): 99.1%
normalised viability (HCC1599 [19]; 10 nM): 100%
normalised viability (HCC1599 [19]; 1000 nM): 93.4%
normalised viability (HCC1599 [19]; 10000 nM): 86.7%
normalised viability (MDA-MB-468 [20]; 10 nM): 101%
normalised viability (MDA-MB-468 [20]; 1000 nM): 101%
normalised viability (MDA-MB-468 [20]; 10000 nM): 106%
normalised viability (MDA-MB-231 [21]; 10 nM): 99.2%
normalised viability (MDA-MB-231 [21]; 1000 nM): 101%
normalised viability (MDA-MB-231 [21]; 10000 nM): 104%
normalised viability (Hs578T [22]; 10 nM): 100%
normalised viability (Hs578T [22]; 1000 nM): 139%
normalised viability (Hs578T [22]; 10000 nM): 122%
normalised viability (BT-474 [23]; 10 nM): 115%
normalised viability (BT-474 [23]; 1000 nM): 122%
normalised viability (BT-474 [23]; 10000 nM): 135%
normalised viability (DU-4475 [24]; 3 nM): 105%
normalised viability (DU-4475 [24]; 30 nM): 116%
normalised viability (DU-4475 [24]; 100 nM): 88.8%

Source: the supplement of paper PMC4862054
